± gives the expanded uncertainty stated by the source.
Experiment: mn = molality of the nth substance listed, in mol/kg
Settings: 100 kPa, Liquid; for speed of sound: Frequency=3 MHz, Single path-length method; for mass density: Vibrating tube method

N.O=P(O)(O)O [ammonium dihydrogen phosphate] + O
Settings	mass density, 288.15 K [kg/m3]	mass density, 298.15 K [kg/m3]	mass density, 308.15 K [kg/m3]	mass density, 318.15 K [kg/m3]	speed of sound, 288.15 K [m/s]	speed of sound, 298.15 K [m/s]	speed of sound, 308.15 K [m/s]	speed of sound, 318.15 K [m/s]
m1 = 0.5	1030 ± 1.1	1026.45 ± 1.1	1023.33 ± 1.1	1019.74 ± 1.1	1507.3 ± 2.2	1534.9 ± 2.1	1555.9 ± 2.1	1570.9 ± 2.1
m1 = 1	1057.62 ± 1.5	1054.22 ± 1.5	1050.98 ± 1.5	1046.48 ± 1.4	1544.3 ± 2.5	1569.7 ± 2.4	1588.9 ± 2.4	1602.6 ± 2.4
m1 = 1.5	1082.56 ± 1.8	1079.6 ± 1.8	1075.85 ± 1.8	1071.76 ± 1.8	1579 ± 2.9	1602.4 ± 2.7	1619.9 ± 2.7	1631.1 ± 2.7

N.N.O=P(O)(O)O [diammonium hydrogen phosphate] + O
Settings	mass density, 288.15 K [kg/m3]	mass density, 298.15 K [kg/m3]	mass density, 308.15 K [kg/m3]	mass density, 318.15 K [kg/m3]	speed of sound, 288.15 K [m/s]	speed of sound, 298.15 K [m/s]	speed of sound, 308.15 K [m/s]	speed of sound, 318.15 K [m/s]
m1 = 0.5	1032.61 ± 1.2	1030.71 ± 1.2	1026.1 ± 1.2	1022.85 ± 1.2	1517.7 ± 2.3	1544.3 ± 2.3	1564.8 ± 2.3	1581.3 ± 2.2
m1 = 1	1066.4 ± 1.6	1064.03 ± 1.6	1060.22 ± 1.6	1055.59 ± 1.6	1572 ± 3	1597.9 ± 2.9	1614.1 ± 2.8	1628.3 ± 2.8
m1 = 1.5	1097.53 ± 2.1	1095.18 ± 2.1	1090.11 ± 2.1	1086.19 ± 2.1	1629.6 ± 4	1650.4 ± 3.6	1664.4 ± 3.6	1676.6 ± 3.5
